# Results reported in ChEMBL document CHEMBL1201862, “PubChem BioAssay data set” (2004).
# The source made the active and inactive calls.
# Experiments:
# [1] = target: T1, Endoribonuclease toxin MazF (Escherichia coli K-12, UniProt P0AE70); assay: MazF toxin RNase activators, dose response, biochemical, fluorescence, single-stranded RNA substrate, uHTS hits (AID 588481); type: functional
# T1 sequence (P0AE70 whole entry): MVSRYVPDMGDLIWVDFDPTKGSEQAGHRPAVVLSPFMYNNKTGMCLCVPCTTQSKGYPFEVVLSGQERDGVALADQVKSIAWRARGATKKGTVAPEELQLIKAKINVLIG
# [2] = target: T1, Endoribonuclease toxin MazF; assay: fluorescent RNA oligo signal without MazF, dose response, counter-screen for MazEF activator project, biochemical, fluorescence, single-stranded RNase substrate (AID 588502); type: functional
# [3] = system: HeLa; assay: HeLa cell cytotoxicity, dose response, cytotoxicity control for MITF activator project, CellTiter-Glo luminescence, cherry-pick samples (AID 540259); type: functional, cell-based; settings: Homo sapiens
# [4] = target: T2, Cytochrome P450 3A4 (Homo sapiens, UniProt P08684);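 note: CYP3A4 tested as one member of a cytochrome P450 panel screen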
# T2 sequence (P08684 whole entry): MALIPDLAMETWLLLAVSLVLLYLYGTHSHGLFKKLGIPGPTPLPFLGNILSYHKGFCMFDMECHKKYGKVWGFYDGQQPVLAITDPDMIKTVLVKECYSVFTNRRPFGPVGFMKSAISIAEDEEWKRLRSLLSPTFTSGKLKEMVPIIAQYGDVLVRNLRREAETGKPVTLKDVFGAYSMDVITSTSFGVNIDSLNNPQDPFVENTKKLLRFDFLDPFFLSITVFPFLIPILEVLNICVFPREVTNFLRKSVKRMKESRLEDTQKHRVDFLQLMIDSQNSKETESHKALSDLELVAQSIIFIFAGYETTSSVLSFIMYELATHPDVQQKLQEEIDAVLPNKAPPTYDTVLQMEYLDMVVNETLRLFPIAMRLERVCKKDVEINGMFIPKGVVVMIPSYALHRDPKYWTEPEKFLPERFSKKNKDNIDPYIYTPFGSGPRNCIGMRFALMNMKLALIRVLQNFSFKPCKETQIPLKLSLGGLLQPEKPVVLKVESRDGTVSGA
# [5] = target: T2, Cytochrome P450 3A4; remark: listed apart in the source
# [6] = target: Glyceraldehyde-3-phosphate dehydrogenase (Homo sapiens, UniProt P04406)
# Glyceraldehyde-3-phosphate dehydrogenase, sequence (P04406 whole entry): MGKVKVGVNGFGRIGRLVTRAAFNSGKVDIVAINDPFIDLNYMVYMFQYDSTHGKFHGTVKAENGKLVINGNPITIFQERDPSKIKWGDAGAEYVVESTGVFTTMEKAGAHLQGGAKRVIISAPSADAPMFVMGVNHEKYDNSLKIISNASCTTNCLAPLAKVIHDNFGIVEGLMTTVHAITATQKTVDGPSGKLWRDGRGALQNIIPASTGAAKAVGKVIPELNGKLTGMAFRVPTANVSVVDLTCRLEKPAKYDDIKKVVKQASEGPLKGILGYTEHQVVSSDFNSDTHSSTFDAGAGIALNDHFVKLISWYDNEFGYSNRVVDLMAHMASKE
# [7] = target: T3, Coagulation factor XII (Homo sapiens, UniProt P00748); type: functional;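 note: activated factor XIIa alpha cleaving a fluorogenic AMC peptide substrate; inhibitor potency from loss of enzyme activity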
# T3 sequence (P00748 whole entry): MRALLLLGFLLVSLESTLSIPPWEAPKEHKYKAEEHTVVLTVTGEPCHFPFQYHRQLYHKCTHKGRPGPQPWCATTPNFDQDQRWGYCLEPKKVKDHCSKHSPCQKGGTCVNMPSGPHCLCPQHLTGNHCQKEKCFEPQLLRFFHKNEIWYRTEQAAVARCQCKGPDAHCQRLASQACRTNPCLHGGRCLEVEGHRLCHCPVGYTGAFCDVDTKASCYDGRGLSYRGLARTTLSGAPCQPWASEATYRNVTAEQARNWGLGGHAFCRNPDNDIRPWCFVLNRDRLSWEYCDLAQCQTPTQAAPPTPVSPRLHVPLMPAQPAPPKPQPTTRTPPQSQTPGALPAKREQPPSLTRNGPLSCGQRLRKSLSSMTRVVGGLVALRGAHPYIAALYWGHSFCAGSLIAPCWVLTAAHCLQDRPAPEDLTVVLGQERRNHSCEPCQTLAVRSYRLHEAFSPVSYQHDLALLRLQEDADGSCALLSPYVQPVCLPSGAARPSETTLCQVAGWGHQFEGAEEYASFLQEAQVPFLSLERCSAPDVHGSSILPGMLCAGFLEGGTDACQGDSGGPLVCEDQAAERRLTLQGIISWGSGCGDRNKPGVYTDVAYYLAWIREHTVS
# [8] = target: T4, Ubiquitin-conjugating enzyme E2 N (Homo sapiens, UniProt P61088); type: functional;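 note: Dose-response confirmation in a TR-FRET assay detecting UBC13-driven polyubiquitin chain formation, inhibition measured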
# T4 sequence (P61088 whole entry): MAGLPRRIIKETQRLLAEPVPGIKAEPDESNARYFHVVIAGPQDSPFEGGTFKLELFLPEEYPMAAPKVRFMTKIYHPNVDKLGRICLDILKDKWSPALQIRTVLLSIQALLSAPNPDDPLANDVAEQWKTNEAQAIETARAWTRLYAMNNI
# [9] = target: DNA dC->dU-editing enzyme APOBEC-3G (Homo sapiens, UniProt Q9HC16); assay: Dose Response confirmation of small molecule APOBEC3G DNA Deaminase Inhibitors via a fluorescence-based single-stranded DNA deaminase assay. [Related pubchem assays (depositor defined):AID493012, AID493028]; type: functional
# DNA dC->dU-editing enzyme APOBEC-3G, sequence (Q9HC16 whole entry): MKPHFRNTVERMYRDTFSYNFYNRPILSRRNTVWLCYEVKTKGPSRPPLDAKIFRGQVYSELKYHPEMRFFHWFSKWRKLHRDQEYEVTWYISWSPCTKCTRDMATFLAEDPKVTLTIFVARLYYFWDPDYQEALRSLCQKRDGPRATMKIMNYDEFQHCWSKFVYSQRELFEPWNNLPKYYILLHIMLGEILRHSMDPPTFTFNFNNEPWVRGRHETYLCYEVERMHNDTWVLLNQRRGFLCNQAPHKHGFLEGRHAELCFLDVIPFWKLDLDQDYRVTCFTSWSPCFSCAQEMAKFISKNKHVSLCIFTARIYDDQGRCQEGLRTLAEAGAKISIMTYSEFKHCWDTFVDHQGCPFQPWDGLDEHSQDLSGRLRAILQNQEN
# [10] = target: T5, Leucine aminopeptidase (Plasmodium falciparum 3D7, UniProt Q8IL11); assay: P. falciparum M17LAP inhibitors, primary screen, biochemical, fluorogenic H-Leu-NHMec substrate, 1536-well (AID 1619); type: functional
# T5 sequence (Q8IL11 whole entry): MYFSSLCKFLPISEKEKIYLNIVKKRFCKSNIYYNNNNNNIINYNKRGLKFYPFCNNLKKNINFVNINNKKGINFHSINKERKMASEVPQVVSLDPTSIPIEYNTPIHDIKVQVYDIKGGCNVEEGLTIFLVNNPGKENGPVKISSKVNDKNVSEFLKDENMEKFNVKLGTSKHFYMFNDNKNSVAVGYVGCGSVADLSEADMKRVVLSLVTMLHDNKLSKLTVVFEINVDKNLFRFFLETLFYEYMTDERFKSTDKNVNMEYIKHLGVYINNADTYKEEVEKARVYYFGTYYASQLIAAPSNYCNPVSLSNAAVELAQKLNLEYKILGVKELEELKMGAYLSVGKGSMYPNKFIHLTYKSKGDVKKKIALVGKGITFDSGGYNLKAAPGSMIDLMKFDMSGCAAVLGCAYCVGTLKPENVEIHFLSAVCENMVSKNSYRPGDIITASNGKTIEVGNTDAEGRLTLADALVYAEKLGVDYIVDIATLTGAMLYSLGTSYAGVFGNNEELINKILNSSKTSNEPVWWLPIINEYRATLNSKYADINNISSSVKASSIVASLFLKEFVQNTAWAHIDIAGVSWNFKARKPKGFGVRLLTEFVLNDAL
# [11] = target: T6, Heat shock factor protein 1 (Mus musculus, UniProt P38532); assay: HSF1 potentiators in luciferase reporter cells, confirmation, cell-based, NIH3T3, luminescence, dose retest (AID 435004); type: functional;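 note: stress induced by proteasome inhibitor MG132 added 30 min after compound; luciferase reporter driven by HSF1 response element in NIH3T3 cells; actives raise luminescence as potentiators of the MG132 stress response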
# T6 sequence (P38532 whole entry): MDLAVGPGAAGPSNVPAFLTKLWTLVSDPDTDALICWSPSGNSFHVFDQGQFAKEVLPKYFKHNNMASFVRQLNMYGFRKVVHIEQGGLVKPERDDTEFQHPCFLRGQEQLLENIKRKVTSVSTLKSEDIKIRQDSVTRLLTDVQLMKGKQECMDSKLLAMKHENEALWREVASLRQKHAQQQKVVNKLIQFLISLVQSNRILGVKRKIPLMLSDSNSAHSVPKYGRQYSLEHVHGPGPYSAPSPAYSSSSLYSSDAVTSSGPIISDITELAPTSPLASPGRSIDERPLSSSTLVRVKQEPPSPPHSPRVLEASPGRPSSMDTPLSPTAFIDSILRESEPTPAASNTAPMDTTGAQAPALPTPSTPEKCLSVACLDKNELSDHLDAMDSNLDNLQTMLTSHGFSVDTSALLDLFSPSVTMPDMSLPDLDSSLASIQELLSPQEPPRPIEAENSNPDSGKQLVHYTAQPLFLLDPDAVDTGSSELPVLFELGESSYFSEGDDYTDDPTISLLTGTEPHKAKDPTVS
# [12] = Luminescence Cell-Based Dose Response HTS to Identify Activators of Luciferase Translation or Activity in H4 […] Cells. [Related pubchem assays: 1829 (Project Summary), 1814 (Primary HTS)]; type: functional
# [13] = system: H4; assay: Luminescence Cell-Based Dose Response HTS to Identify Activators of 5'UTR Stem-Loop Driven Prion Protein mRNA Translation in H4 Neuroglioblastoma Cells. [Related pubchem assays: 1829 (Project Summary), 1814 (Primary HTS)]; type: functional; settings: Homo sapiens
# [14] = target: T7, Replicative DNA helicase DnaB (Mycobacterium tuberculosis, UniProt P9WMR3); assay: DnaB intein splicing inhibitors, dose response, biochemical, cell-free fluorescence (AID 449749); type: functional
# T7 sequence (P9WMR3 whole entry): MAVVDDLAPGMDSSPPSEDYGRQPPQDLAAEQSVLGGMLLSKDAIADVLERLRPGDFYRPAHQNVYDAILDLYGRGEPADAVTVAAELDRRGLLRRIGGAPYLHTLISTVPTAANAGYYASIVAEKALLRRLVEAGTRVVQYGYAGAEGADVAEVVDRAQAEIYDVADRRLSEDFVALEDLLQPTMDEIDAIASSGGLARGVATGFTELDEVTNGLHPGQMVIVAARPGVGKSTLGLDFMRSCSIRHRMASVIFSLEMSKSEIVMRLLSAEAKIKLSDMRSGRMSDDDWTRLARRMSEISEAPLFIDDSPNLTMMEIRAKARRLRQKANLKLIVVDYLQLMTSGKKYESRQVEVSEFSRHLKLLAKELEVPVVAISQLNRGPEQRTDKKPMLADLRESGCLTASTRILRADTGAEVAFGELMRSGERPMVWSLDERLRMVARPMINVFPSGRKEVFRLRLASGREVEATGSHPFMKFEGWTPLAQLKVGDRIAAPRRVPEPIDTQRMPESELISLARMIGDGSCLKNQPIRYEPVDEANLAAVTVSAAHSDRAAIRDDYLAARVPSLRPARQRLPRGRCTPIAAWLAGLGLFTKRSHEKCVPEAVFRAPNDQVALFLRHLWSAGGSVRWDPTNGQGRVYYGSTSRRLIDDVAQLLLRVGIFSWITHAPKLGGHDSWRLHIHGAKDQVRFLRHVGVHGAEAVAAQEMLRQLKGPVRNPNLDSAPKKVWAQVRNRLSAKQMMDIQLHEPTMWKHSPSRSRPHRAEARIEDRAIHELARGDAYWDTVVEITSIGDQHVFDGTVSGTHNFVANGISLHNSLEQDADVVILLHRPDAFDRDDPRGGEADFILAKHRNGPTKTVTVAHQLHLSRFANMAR
# [15] = target: T8, Protein RecA (Mycobacterium tuberculosis, UniProt P9WHJ3); assay: Fluorescence Cell-Free Homogeneous Dose Retest to Identify Inhibitors of RecA-Intein Splicing Activity. [Related pubchem assays (depositor defined):AID2097, AID2223, AID489010, AID492950]; type: functional
# T8 sequence (P9WHJ3 whole entry): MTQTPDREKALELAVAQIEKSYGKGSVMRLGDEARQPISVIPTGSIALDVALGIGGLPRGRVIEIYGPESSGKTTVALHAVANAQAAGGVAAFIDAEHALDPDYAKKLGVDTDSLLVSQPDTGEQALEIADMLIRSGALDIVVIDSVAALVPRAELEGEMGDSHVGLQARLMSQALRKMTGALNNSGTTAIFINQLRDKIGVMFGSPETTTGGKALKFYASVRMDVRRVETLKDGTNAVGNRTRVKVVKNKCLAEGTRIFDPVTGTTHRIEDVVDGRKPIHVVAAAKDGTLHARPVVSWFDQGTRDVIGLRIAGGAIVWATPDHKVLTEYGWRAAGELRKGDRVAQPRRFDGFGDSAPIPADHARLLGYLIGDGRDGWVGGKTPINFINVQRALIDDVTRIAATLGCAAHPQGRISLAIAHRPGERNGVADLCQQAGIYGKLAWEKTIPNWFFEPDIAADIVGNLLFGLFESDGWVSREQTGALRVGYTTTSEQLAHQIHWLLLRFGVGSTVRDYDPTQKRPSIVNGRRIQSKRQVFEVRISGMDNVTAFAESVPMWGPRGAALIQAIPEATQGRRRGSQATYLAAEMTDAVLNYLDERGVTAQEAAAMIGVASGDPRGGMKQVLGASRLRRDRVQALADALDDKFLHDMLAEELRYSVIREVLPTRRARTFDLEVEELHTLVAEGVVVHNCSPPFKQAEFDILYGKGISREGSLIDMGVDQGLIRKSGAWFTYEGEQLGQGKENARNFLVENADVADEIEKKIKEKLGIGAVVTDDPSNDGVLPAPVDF
smiles,measurement,setting,value
CCOC(=O)c1c(/N=C/C2C(=O)NC(=O)NC2=O)sc2c1CCC2,EC50,[1],> 99 µM (inactive)
same,EC50,[2],> 99 µM (inactive)
Nc1ccccc1C#Cc1ccccc1,AC50,[3],> 350 µM (inactive)
same,AC50,[4],15.8 µM (inconclusive)
same,AC50,[5],15.8 µM (inconclusive)
CCN1CCN(C2=C(Cl)C(=O)N(c3cccc(C)c3)C2=O)CC1,IC50,[6],> 50 µM (inconclusive)
N#C/C(=C\c1ccc([N+](=O)[O-])cc1)c1nc(C2CC2)cs1,EC50,[1],10.4 µM (active)
same,EC50,[2],> 99 µM (inactive)
CN(C)c1ccc(C(=S)N2CCN(c3ccc([N+](=O)[O-])cc3)CC2)cc1,IC50,[7],> 50 µM (inactive)
COCCN(C(=O)C1CC1)c1nnc(-c2ccc(C)cc2)s1,IC50,[7],> 50 µM (inactive)
CSc1ccc(-c2nnn(Cc3ccc(C)cc3)n2)cc1,AC50,[3],98 µM (active)
CCOc1ccc(C(CC(=O)O)C(=O)O)cc1 (stereo not given),IC50,[6],> 100 µM (not active)
N=C(N)Nc1ccc2[nH]c3c(c2c1)C[C@@]1(O)[C@H]2Cc4ccc(O)c5c4[C@@]1(CCN2CC1CC1)[C@H]3O5,IC50,[8],> 20 µM (inactive)
same,IC50,[9],24.4 µM (active)
Cc1oc(-c2cc(Cl)cc(Cl)c2)cc1C(=O)Nc1ccc(S(N)(=O)=O)cc1,IC50,[6],> 100 µM (not active)
N#C/C(=C\C1=C(N2CCOCC2)C(=C/c2cccc([N+](=O)[O-])c2)/CC1)C(=O)Nc1ccccc1F,EC50,[1],> 99 µM (inactive)
same,EC50,[2],> 99 µM (inactive)
CC1CCCC(C)N1C(=O)c1cc(-c2ccc3c(c2)OCO3)on1 (stereo not given),AC50,[3],> 350 µM (inactive)
COc1ccc(C(=O)N/N=C\c2coc3ccc(C)cc3c2=O)cc1,EC50,[1],> 99 µM (inactive)
same,EC50,[2],> 99 µM (inactive)
O=C(O)C1CCCCC1C(=O)Nc1ccc2c(c1)CCC2 (stereo not given),IC50,[10],9.16 µM (active)
same,EC50,[11],> 260 µM (inactive)
COc1ccc(NC(=O)CN(C)C(=O)CNC(=O)c2sc3ccccc3c2Cl)cc1,AC50,[3],41.6 µM (active)
CSc1nccc(N/N=C/c2ccccc2)n1,EC50,[12],0.32 µM (active)
same,EC50,[13],2.55 µM (active)
same,AC50,[3],100 µM (active)
Cc1onc(-c2c(F)cccc2Cl)c1-c1nnc(-c2ccc(C(F)(F)F)cc2)o1,IC50,[7],> 50 µM (inactive)
CC(=O)N1CCC2(CC1)C(C#N)=C(N)Oc1[nH]nc(CSc3ccc(C)cc3)c12,IC50,[10],21.1 µM (active)
same,AC50,[14],4.72 µM (active)
same,EC50,[15],2.9 µM (active)
